Where no end group is shown, it is not given here. The star is where a group is joined. FITC = O=C1OC2(c3ccc(O)cc3Oc3cc(O)ccc32)c2ccc(NC(=S)*)cc21

The text below walks through data of patent US10259844B2, “Endometriosis cell targeting peptide and uses thereof” (Sanford-Burnham Medical Research Institute, priority 2005, dated 2019).

One assay has as its system Ishikawa cells. Nature of the assay: Fluorescence microscopy of overlay on Ishikawa cells. The format is cell-based, human. As to the method: Twenty μl of C16-z13 peptide (10 mM in chloroform:methanol 2:1) was mixed with 20 μl phosphatidylcholine (100 mM in chloroform) and 10 μl cholesterol (100 mM in chloroform) in a round bottom flask and evaporated in a rotary evaporator. The sample was dried in a vacuum, dissolved in 500 μl 0.3M citric acid, and frozen and thawed three times, followed by sonication for 10 min. Five hundred μl of 0.2M Na2CO3 and 20 μl of 1 μM Qdot605 streptavidin was added and heated at 60° C. for 1 hour. After adding 1 ml of 20 mM Hepes buffer, pH7.2, the liposome solution was centrifuged at 90,000 rpm for 30 min at 4° C. and the pellet dissolved in PBS.
(§1) Ishikawa cells and A431 cells were grown on glass coverslips in 3.5 cm tissue culture plates. Each phage clone including z13 was added to these cells, incubated at 4° C. for 15 min, washed with cold PBS, and fixed with 1% paraformaldehyde (PFA) in PBS. Phage was detected using rabbit anti-T7 antibody and FITC-conjugated goat anti-rabbit IgG antibody. After washing three times with PBS, cells were fixed with 1% paraformaldehyde in PBS and inspected under a Zeiss Axioplan fluorescence microscope. Ishikawa cells grown on glass coverslips were incubated in medium containing FITC-z13 peptide (1 μg/ml) at 37° C. for 15 min. After washing with PBS, cells were fixed with 1% PFA in PBS, and inspected under the fluorescence microscope. Qdot-encapsulated and C16-z13 peptide coated liposomes were prepared as described above. Ishikawa cells were incubated with these liposomes at 37° C. for 15 min, washed with PBS, fixed with 1% PFA, and inspected under the fluorescence microscope. Qdot605-conjugated peptide, Qdot-cys-z13, or control peptide, Qdot-cys-m2, was added to the culture at 100 nM and left at 37° C. for 15 min.

Another assay has as its system A431 cells. Nature of the assay: Fluorescence microscopy of overlay on A431 cells. It counts as cell-based, human. As to the method:
as §1

The subject of assay [1] is human endometrial tissues grafted onto the peritoneal wall. Nature of the assay: In vivo targeting in SCID mouse peritoneal endometriosis model. The conditions noted are these: intraperitoneal injection, 30 min. As to the method: For in vivo targeting, Qdot-cys-z13 or Qdot-cys-m2 (200 nmoles in 200 μl PBS/mouse) was injected into the peritoneum of a SCID mouse that had received intraperitoneal grafts of human endometrial tissues. The abdomen of the mouse was massaged gently to distribute injected material to the entire peritoneal cavity. After 30 min, mice were sacrificed, and the endometrial graft and organs facing the peritoneum were isolated. Tissues were washed in PBS, embedded in O. C. T. compound (Sakura Finetechnical, Tokyo, Japan) and cryosections were made. Sections were fixed with cold methanol, covered with Vecta-shield with DAPI (Vector), and inspected with a fluorescence microscope.
Immunohistochemistry for the progesterone receptor (PR) was performed as follows: Frozen mouse tissue sections prepared from Qdot-cys-z13 injected mice, Qdot-cys-m2 injected mice, and control mice without Qdot injection were fixed in cold methanol for 15 min. Tissue sections were blocked with avidin (5 ng/ml) in PBS at room temperature for 15 min, followed by incubation with 10% goat serum containing biotin (5 μg/ml) for 1 hour. The tissue sections were then applied to immunohistochemistry with a diluted (1:100) anti-PR antibody (DAKO, Carpinteria, Calif.) at 4° C. for 20 hours. After washing with PBS, sections were incubated with biotinylated anti-rabbit IgG antibody (Zymed) and by streptavidin conjugated Qdot565. […]

As to “FITC-z13: synthetic fluorescence-tagged z13 peptide whose amino-terminus was conjugated ({FITC}-VRRADNRPG)”, in the assay with Ishikawa cells (1 μg/ml, 37° C. 15 min), the “binding of fluorescent peptide to Ishikawa cells” value is “bound”. Besides, the “fluorescence of fluorescent peptide on A431 cells” value in the assay on A431 cells is reported as “did not show fluorescence”.

As for “Qdot-cys-m2: Qdot605 conjugate of the control peptide cys-m2 CRGMSDTTAL (also: Qdot605 conjugate)”, in assay [1], the “fluorescence at the surface epithelia of endometriosis lesions” value is recorded as “did not show fluorescence” and the “fluorescence in other mouse tissues facing the peritoneum” value is on record as “did not show fluorescence”. Moreover, the “fluorescence of Qdot-conjugated peptide on Ishikawa cells” value with Ishikawa cells (100 nM, 37° C. 15 min) was “did not show fluorescence signals”.

VRRADNRPG [z13 peptide]: in the assay with Ishikawa cells (conclusion from FITC, C16 liposome and Qdot conjugates), the “binding to Ishikawa cells regardless of modification at the amino terminus” value is reported as “efficiently binds”.
